{"source": "a melting point compilation (Tetko et al.; mined from patent text by program, amines drawn as free bases though some values may be those of a salt)"}
{"units": {"melting point": "°C"}}
{"smiles": "CC12CCC3C(CCC4(O)CC(O)CCC34CO)C1(O)CCC2c1ccnnc1", "note": "(stereo not drawn)", "melting point": "138 to 140"}
{"smiles": "Cc1nnc2n1-c1ccc(Cl)cc1C(c1ccccc1Cl)=NN2Cc1ccncc1", "melting point": "195 to 196"}
{"smiles": "CN(C)C1(c2ccccc2)CC=C(c2cn(S(=O)(=O)c3ccccc3)c3ccccc23)CC1", "note": "(stereo not drawn)", "melting point": "165 to 167"}
{"smiles": "N#Cc1ccc(C(=O)OCc2ccc[nH]c2=O)cc1", "melting point": "200 to 203"}
{"smiles": "C=CC(=O)NCC(C(=O)c1ccccc1)C(=O)c1ccccc1", "melting point": "146 to 148"}
{"smiles": "COc1c(N2CCC(O)C(CO)C2)c(F)cc2c(=O)c(C(=O)O)cn(C3CC3)c12", "note": "(stereo not drawn)", "melting point": "115 to 125"}
{"smiles": "CCOC(=O)C(=O)Nc1cc(CC)c(C(=O)OCC)s1", "melting point": "103 to 105"}
{"smiles": "CNC(=S)N(O)C(C)c1cc(C(C)(C)C)c(O)c(C(C)(C)C)c1", "note": "(stereo not drawn)", "melting point": "175 to 176"}
{"smiles": "CCCCn1c(=O)n(CCCC)c2cc3c(N4CCN(C(=O)Nc5ccc(Oc6ccccc6)cc5)CC4)ncnc3cc21", "melting point": "134 to 136"}
{"smiles": "CC(C)(C)c1ccc(C(=O)Nc2cn3cc(Cl)ccc3n2)cc1", "melting point": "250 to 251"}
{"smiles": "CC1(C)Oc2ccc(S(=O)(=O)c3ccc(O)cc3)cc2[C@@H](Oc2ccc(O)nn2)[C@]1(C)O", "melting point": "> 200"}
{"smiles": "c1ccc(C(CCN2CC3=C(C2)c2cccc4cccc3c24)(c2ccccc2)c2ccccc2)cc1", "melting point": "159 to 168"}
{"smiles": "CCOC(=O)C=Cc1ccc(OCc2ccccn2)cc1", "melting point": 95}
{"smiles": "FC(F)(F)c1cccc(-c2ccnc3ncnn23)c1", "melting point": "158 to 160"}
{"smiles": "CCOC(=O)c1cc2cc(NC(=O)C[C@H]3O[C@H](c4cccc(OC)c4OC)c4cc(Cl)ccc4N(CC(C)(C)COC(C)=O)C3=O)ccc2[nH]1", "melting point": "200 to 201"}
{"smiles": "O=C1NC(=O)c2c1c(-c1ccccc1Cl)cc1c2cc(C(=O)O)n1CCCBr", "melting point": "294 to 295"}
{"smiles": "Clc1cnc2c(-c3ccccc3)nc(-c3ccccc3)nc2c1", "melting point": "120 to 121"}
{"smiles": "Cc1cc(Cl)ccc1NC=NO", "melting point": "171 to 172"}
{"smiles": "COc1cc(Nc2c(C#N)cnc3cc(/C=C/CCN4CCN(C)CC4)c(OC)cc23)c(Cl)cc1Cl", "melting point": "142 to 143"}
{"smiles": "CCCCc1oc2ccccc2c1C(=O)N(C)Cc1ccc(-c2ccc(OC(Cc3ccccc3)C(=O)O)c(Br)c2)cc1", "note": "(stereo not drawn)", "melting point": "79 to 86"}
{"smiles": "CC(C)(C)c1ccc(/C=C/C(=O)Nc2ccc3c(c2)NCCC3)cc1", "melting point": "225 to 227"}
{"smiles": "FC(F)(F)c1nnc2c(Cl)nc3ccc(Cl)cc3n12", "melting point": "133 to 135"}
{"smiles": "COC(=O)C(CCn1c(Cl)ccc1C(=O)c1ccc(Cl)cc1)C(=O)OC", "melting point": "72.5 to 73.5"}
{"smiles": "O=C1N(Cc2ccc(C(F)(F)F)o2)c2cccc(Cl)c2C12COc1cc3c(cc12)CCO3", "note": "(stereo not drawn)", "melting point": "166 to 169"}
{"smiles": "CCCCc1nn(-c2cc([N+](=O)[O-])ccc2Cl)c(=O)n1Cc1ccc(-c2ccccc2S(=O)(=O)NC(C)(C)C)cc1", "melting point": "> 75"}
{"smiles": "CCCOc1cc(C)ccc1-c1nc(N)c(N=O)c(=O)[nH]1", "melting point": "214 to 216"}
{"smiles": "N[C@H]1CC[C@H](Nc2cc(C(F)(F)F)nc3c(C(F)(F)F)cccc23)CC1", "melting point": 173}
{"smiles": "CC(=O)NC(C)c1ccc(CN2CCN(c3ccccn3)CC2)cc1", "note": "(stereo not drawn)", "melting point": "120 to 121"}
{"smiles": "COc1ccccc1COc1ccc(S(=O)(=O)c2ccc(C)nc2Nc2cc(F)c(N(C)C)cc2Cl)cc1", "melting point": "68 to 70"}
{"smiles": "COc1cc(OC)c2c(=O)c(I)coc2c1", "melting point": "158 to 160"}
{"smiles": "O=C(NCCO)c1cccc(-c2ccc(F)c3cc(Cc4cccc(C(F)(F)F)c4)oc23)c1", "melting point": "159 to 160"}
{"smiles": "CN1CCC(C2c3sccc3CCn3ncnc32)CC1", "note": "(stereo not drawn)", "melting point": 123}
{"smiles": "CC1(C)CC(=NO)c2cc(-c3ccccc3)ccc2O1", "melting point": "130 to 134"}
{"smiles": "CC(C)(C)Oc1nc2cc(F)c([N+](=O)[O-])cc2nc1Cl", "melting point": "141 to 143"}
{"smiles": "Cc1c(OCc2ccc(CC(C)C)cc2)ccc(C(=O)Nc2ccccc2OCCCC(=O)O)c1C", "melting point": 143}
{"smiles": "O=C1C=CC(=O)N1c1ccc2c3c(cccc13)-c1ccccc1-2", "melting point": "185 to 186"}
{"smiles": "CCn1c2c(c3ccccc31)Cc1c(CO)c(CO)c(C)n1C2", "melting point": "216 to 217"}
{"smiles": "COc1ccc(NS(=O)(=O)C(F)(F)F)cc1CC1C(=O)c2cc(OCc3nc4cc(F)c(F)cc4s3)ccc2OC1(C)C", "note": "(stereo not drawn)", "melting point": "198 to 200"}
{"smiles": "Cn1c(=O)c(-c2ccc(Cl)cc2Cl)cc2c3cc(C=NO)ccc3n(C)c21", "melting point": "287 to 290"}
{"smiles": "Nc1ccc2ccc(-c3cccc(Br)c3)nc2n1", "melting point": "165 to 166"}
{"smiles": "CC(CCc1ccc(Cl)cc1)(Cn1ccnc1)Sc1cccc(Cl)c1Cl", "note": "(stereo not drawn)", "melting point": "126 to 128"}
{"smiles": "CC(C)(O)c1cccn2c(-c3ccnc(NC4CCC(C(=O)N5CCC(O)CC5)CC4)n3)cnc12", "note": "(stereo not drawn)", "melting point": "188 to 190"}
{"smiles": "CCCC=Nc1cc(CO)cc(Nc2c3ccccc3nc3ccccc23)c1", "melting point": "228 to 230"}
{"smiles": "C#CCNC(=O)c1ncn2c1CN(C)C(=O)c1ccccc1-2", "melting point": "213 to 215"}
{"smiles": "COc1cc(C(=O)OCc2ccc3nc(N)nc(N)c3c2)cc(OC)c1OC", "melting point": "223 to 227"}
{"smiles": "COc1cc2c(cc1Nc1ncc3ccc(-c4ccccc4OC)n3n1)CN(C)C2", "melting point": "136 to 141"}
{"smiles": "COc1cc(Nc2c(C#N)cnc3cc(/C=C/CCO)c(OC)cc23)c(Cl)cc1Cl", "melting point": "186 to 188"}
{"smiles": "Cc1cccc(-c2nc(=O)c3ccccc3s2)n1", "melting point": 170}
